Test results reported in patent publication US8268821B2, “Methods and compositions” (priority 2003, dated 2012).
Marks after values point to notes of the source that are not given here.

System: cancer-related neuropathic pain
Assay: Open label dose escalation study of flupirtine, case studies JE and RM
Conditions: flupirtine 100 mg qid; for neuropathic discriminant function score: >0 = neuropathic, day 1 baseline 0.262; for electric pain score / freezing pain score / numbness score / score for increased pain due to touch / score for increased pain due to weather changes / squeezing pain score / LEAST PAIN LAST 24 HRS: day 1 baseline 0; for PERCENTAGE PAIN RELIEF LAST 24 HOURS / WORST PAIN SCORE LAST 24 HOURS: day 1 baseline 10; for score for overly sensitive to touch / tingling pain score: day 1 baseline 20; for burning pain score / overwhelming pain score: day 1 baseline 90; for for shooting pain score / unpleasant pain score: day 1 baseline 100; for SCORE RELATIONSHIPS / SCORE MOOD / SCORE ENJOYMENT / SCORE SLEEP / SCORE WALKING / SCORE GENERAL ACTIVITY / SCORE TOTAL ACTIVITY: pain interference 1-10; for SCORE RELATIONSHIPS / SCORE NAUSEA / WHO PERFORMANCE STATUS: day 1 baseline 3; for SCORE MOOD / SCORE POOR APPETITE / SCORE UN[…] GAIT / PAIN SCORE RIGHT NOW: day 1 baseline 4; for SCORE ENJOYMENT / SCORE SLEEP: day 1 baseline 6; for SCORE WALKING: day 1 baseline 7; for SCORE GENERAL ACTIVITY / SCORE TOTAL ACTIVITY / AVERAGE PAIN LAST 24 HOURS: day 1 baseline 8; for SCORE CONSTIPATION / SCORE INDIGESTION / SCORE POOR CONCENTRATION / SCORE DROWSINESS / SCORE NAUSEA / SCORE POOR APPETITE / SCORE UN[…] GAIT: scale 1-4; for SCORE CONSTIPATION / SCORE INDIGESTION / SCORE POOR CONCENTRATION: day 1 baseline 1; for SCORE DROWSINESS: day 1 baseline 2; for LEAST PAIN LAST 24 HRS / PAIN SCORE RIGHT NOW / AVERAGE PAIN LAST 24 HOURS / WORST PAIN SCORE LAST 24 HOURS: scale to 10; for WHO PERFORMANCE STATUS: 0=fully active, 4=completely disabled

CCOC(=O)Nc1ccc(NCc2ccc(F)cc2)nc1N [flupirtine]
30: overwhelming pain score (RM day 4)
15%: PERCENTAGE PAIN RELIEF LAST 24 HOURS (RM day 2) | PERCENTAGE PAIN RELIEF LAST 24 HOURS (RM day 3)
8: WORST PAIN SCORE LAST 24 HOURS (RM day 2) | PAIN SCORE RIGHT NOW (RM day 3) | AVERAGE PAIN LAST 24 HOURS (RM day 3) | WORST PAIN SCORE LAST 24 HOURS (RM day 3) | AVERAGE PAIN LAST 24 HOURS (RM day 4) | WORST PAIN SCORE LAST 24 HOURS (RM day 4) | AVERAGE PAIN LAST 24 HOURS (RM day 5)
6: SCORE SLEEP (RM day 2) | SCORE WALKING (RM day 2) | SCORE GENERAL ACTIVITY (RM day 2) | SCORE TOTAL ACTIVITY (RM day 2) | PAIN SCORE RIGHT NOW (RM day 2) | SCORE WALKING (RM day 3) | SCORE ENJOYMENT (RM day 5) | SCORE SLEEP (RM day 5) | SCORE GENERAL ACTIVITY (RM day 5) | SCORE TOTAL ACTIVITY (RM day 5) | SCORE ENJOYMENT (RM day 6) | SCORE WALKING (RM day 6) | SCORE GENERAL ACTIVITY (RM day 6) | SCORE TOTAL ACTIVITY (RM day 6) | PAIN SCORE RIGHT NOW (RM day 6) | SCORE MOOD (RM day 7) | SCORE ENJOYMENT (RM day 7) | SCORE SLEEP (RM day 7) | SCORE WALKING (RM day 7)
50: overwhelming pain score (RM day 3) | unpleasant pain score (RM day 7)
20: for shooting pain score (RM day 3) | overwhelming pain score (RM day 7)
45*: unpleasant pain score (RM day 8)
9: WORST PAIN SCORE LAST 24 HOURS (RM day 5)
75%: PERCENTAGE PAIN RELIEF LAST 24 HOURS (RM day 4) | PERCENTAGE PAIN RELIEF LAST 24 HOURS (RM day 7)
6*: SCORE WALKING (RM day 8)
5: AVERAGE PAIN LAST 24 HOURS (RM day 2) | SCORE GENERAL ACTIVITY (RM day 3) | SCORE TOTAL ACTIVITY (RM day 3) | SCORE WALKING (RM day 4) | SCORE GENERAL ACTIVITY (RM day 4) | SCORE TOTAL ACTIVITY (RM day 4) | SCORE WALKING (RM day 5) | PAIN SCORE RIGHT NOW (RM day 5) | SCORE GENERAL ACTIVITY (RM day 7) | SCORE TOTAL ACTIVITY (RM day 7) | PAIN SCORE RIGHT NOW (RM day 7) | WORST PAIN SCORE LAST 24 HOURS (RM day 7)
−1.168: neuropathic discriminant function score (RM day 6) | neuropathic discriminant function score (RM day 7)
20*: overwhelming pain score (RM day 8)
1: SCORE CONSTIPATION (RM day 2) | SCORE INDIGESTION (RM day 2) | SCORE NAUSEA (RM day 2) | SCORE SLEEP (RM day 3) | SCORE CONSTIPATION (RM day 3) | SCORE INDIGESTION (RM day 3) | SCORE POOR CONCENTRATION (RM day 3) | SCORE NAUSEA (RM day 3) | SCORE POOR APPETITE (RM day 3) | SCORE INDIGESTION (RM day 4) | SCORE POOR CONCENTRATION (RM day 4) | SCORE DROWSINESS (RM day 4) | SCORE POOR APPETITE (RM day 4) | SCORE INDIGESTION (RM day 5) | SCORE DROWSINESS (RM day 5) | SCORE NAUSEA (RM day 5) | SCORE INDIGESTION (RM day 6) | SCORE DROWSINESS (RM day 6) | SCORE INDIGESTION (RM day 7) | SCORE DROWSINESS (RM day 7) | SCORE INDIGESTION (RM day 8) | LEAST PAIN LAST 24 HRS (RM day 8)
80: for shooting pain score (RM day 2) | unpleasant pain score (RM day 5)
60: unpleasant pain score (RM day 4) | unpleasant pain score (RM day 6)
−1.138: neuropathic discriminant function score (RM day 4)
0*: score for overly sensitive to touch (RM day 8) | tingling pain score (RM day 8) | burning pain score (RM day 8) | for shooting pain score (RM day 8)
50%: PERCENTAGE PAIN RELIEF LAST 24 HOURS (RM day 6)
3: SCORE RELATIONSHIPS (RM day 2) | SCORE POOR CONCENTRATION (RM day 2) | SCORE DROWSINESS (RM day 2) | SCORE POOR APPETITE (RM day 2) | WHO PERFORMANCE STATUS (RM day 3) | SCORE RELATIONSHIPS (RM day 3) | WHO PERFORMANCE STATUS (RM day 4) | SCORE RELATIONSHIPS (RM day 4) | SCORE ENJOYMENT (RM day 4) | SCORE CONSTIPATION (RM day 4) | WHO PERFORMANCE STATUS (RM day 5) | SCORE RELATIONSHIPS (RM day 5) | SCORE MOOD (RM day 5) | WHO PERFORMANCE STATUS (RM day 6) | SCORE RELATIONSHIPS (RM day 6) | WHO PERFORMANCE STATUS (RM day 7) | SCORE RELATIONSHIPS (RM day 7) | SCORE POOR APPETITE (RM day 7) | AVERAGE PAIN LAST 24 HOURS (RM day 7) | WHO PERFORMANCE STATUS (RM day 8) | SCORE RELATIONSHIPS (RM day 8) | SCORE CONSTIPATION (RM day 8) | SCORE NAUSEA (RM day 8)
7: WORST PAIN SCORE LAST 24 HOURS (RM day 6) | PAIN SCORE RIGHT NOW (RM day 8)
70: burning pain score (RM day 2) | overwhelming pain score (RM day 2)
95: unpleasant pain score (RM day 2)
75: unpleasant pain score (RM day 3)
0: electric pain score (RM day 2) | freezing pain score (RM day 2) | numbness score (RM day 2) | score for increased pain due to touch (RM day 2) | score for increased pain due to weather changes (RM day 2) | squeezing pain score (RM day 2) | score for overly sensitive to touch (RM day 2) | tingling pain score (RM day 2) | LEAST PAIN LAST 24 HRS (RM day 2) | electric pain score (RM day 3) | freezing pain score (RM day 3) | numbness score (RM day 3) | score for increased pain due to touch (RM day 3) | score for increased pain due to weather changes (RM day 3) | squeezing pain score (RM day 3) | score for overly sensitive to touch (RM day 3) | tingling pain score (RM day 3) | burning pain score (RM day 3) | LEAST PAIN LAST 24 HRS (RM day 3) | electric pain score (RM day 4) | freezing pain score (RM day 4) | numbness score (RM day 4) | score for increased pain due to touch (RM day 4) | score for increased pain due to weather changes (RM day 4) | squeezing pain score (RM day 4) | score for overly sensitive to touch (RM day 4) | tingling pain score (RM day 4) | burning pain score (RM day 4) | for shooting pain score (RM day 4) | LEAST PAIN LAST 24 HRS (RM day 4) | electric pain score (RM day 5) | freezing pain score (RM day 5) | numbness score (RM day 5) | score for increased pain due to touch (RM day 5) | score for increased pain due to weather changes (RM day 5) | squeezing pain score (RM day 5) | score for overly sensitive to touch (RM day 5) | tingling pain score (RM day 5) | burning pain score (RM day 5) | for shooting pain score (RM day 5) | electric pain score (RM day 6) | freezing pain score (RM day 6) | numbness score (RM day 6) | score for increased pain due to touch (RM day 6) | score for increased pain due to weather changes (RM day 6) | squeezing pain score (RM day 6) | score for overly sensitive to touch (RM day 6) | tingling pain score (RM day 6) | burning pain score (RM day 6) | for shooting pain score (RM day 6) | electric pain score (RM day 7) | freezing pain score (RM day 7) | numbness score (RM day 7) | score for increased pain due to touch (RM day 7) | score for increased pain due to weather changes (RM day 7) | squeezing pain score (RM day 7) | score for overly sensitive to touch (RM day 7) | tingling pain score (RM day 7) | burning pain score (RM day 7) | for shooting pain score (RM day 7) | LEAST PAIN LAST 24 HRS (RM day 7) | electric pain score (RM day 8) | freezing pain score (RM day 8) | numbness score (RM day 8) | score for increased pain due to touch (RM day 8) | score for increased pain due to weather changes (RM day 8) | squeezing pain score (RM day 8)
−0.228: neuropathic discriminant function score (RM day 2)
75* %: PERCENTAGE PAIN RELIEF LAST 24 HOURS (RM day 8)
2.5: PAIN SCORE RIGHT NOW (RM day 4)
4: SCORE MOOD (RM day 2) | SCORE ENJOYMENT (RM day 2) | SCORE UN[…] GAIT (RM day 2) | SCORE MOOD (RM day 3) | SCORE ENJOYMENT (RM day 3) | SCORE UN[…] GAIT (RM day 3) | SCORE UN[…] GAIT (RM day 4) | SCORE UN[…] GAIT (RM day 5) | SCORE MOOD (RM day 6) | SCORE SLEEP (RM day 6) | SCORE UN[…] GAIT (RM day 6) | AVERAGE PAIN LAST 24 HOURS (RM day 6) | SCORE UN[…] GAIT (RM day 7) | SCORE UN[…] GAIT (RM day 8)
2: SCORE DROWSINESS (RM day 3) | SCORE MOOD (RM day 4) | SCORE SLEEP (RM day 4) | SCORE NAUSEA (RM day 4) | SCORE CONSTIPATION (RM day 5) | SCORE POOR CONCENTRATION (RM day 5) | SCORE POOR APPETITE (RM day 5) | LEAST PAIN LAST 24 HRS (RM day 5) | SCORE CONSTIPATION (RM day 6) | SCORE POOR CONCENTRATION (RM day 6) | SCORE NAUSEA (RM day 6) | SCORE POOR APPETITE (RM day 6) | LEAST PAIN LAST 24 HRS (RM day 6) | SCORE CONSTIPATION (RM day 7) | SCORE POOR CONCENTRATION (RM day 7) | SCORE NAUSEA (RM day 7) | SCORE POOR CONCENTRATION (RM day 8)
65%: PERCENTAGE PAIN RELIEF LAST 24 HOURS (RM day 5)
−1.008: neuropathic discriminant function score (RM day 3)
−1.003: neuropathic discriminant function score (RM day 5)
40: overwhelming pain score (RM day 6)
1*: SCORE SLEEP (RM day 8) | SCORE DROWSINESS (RM day 8)
5*: SCORE GENERAL ACTIVITY (RM day 8) | SCORE TOTAL ACTIVITY (RM day 8)
4*: SCORE MOOD (RM day 8) | SCORE ENJOYMENT (RM day 8)
25: overwhelming pain score (RM day 5)
